From ChEMBL document CHEMBL1150638, “An unusual sesquiterpene derivative from Ferula kuhistanica” (J Nat Prod, 2002)
Active and inactive are the calls of the source. The calls are words filed in the database; no cut-off is given here.

How the values were obtained:
[1] = test system: Staphylococcus aureus; assay: Antibacterial activity against methicillin-resistant Staphylococcus aureus; assay type: functional, organism-based
[2] = test system: Staphylococcus aureus; assay: Antibacterial activity against methicillin-sensitive Staphylococcus aureus; assay type: functional, organism-based
[3] = test system: HCT-116; assay: Cytotoxicity against human HCT116 cells after 2 days by MTT assay; assay type: functional, cell-based; details: HCT-116, 48 h

CC(=O)CC[C@@]1(C)CC[C@]2(C(C)C)O[C@@H](O)[C@H](OC(=O)c3ccc(O)cc3)[C@H]12 [KUHISTAFERONE]
Activity [1]: inactive | Activity [2]: inactive | IC50 [3]: 181 µM
